Patent US11434221B2, “Pyrazine-4-carbamate or -urea derivatives as herbicides” (Syngenta Participations AG, priority 2017, dated 2022)

Key:
Type in all cases: in vivo
Parameters in all cases: key: 5=total damage to plant; 0=no damage to plant
[1] = system: Triticum aestivium (TRZAW); assay: Post-emergence herbicidal activity, glasshouse pot test; settings: Rate 1000 g/ha; sprayed after 8 days cultivation; evaluated after 13 days
Method: (§1) Seeds of a variety of test species were sown in standard soil in pots: Triticum aestivium (TRZAW), Avena fatua (AVEFA), Alopecurus myosuroides (ALOMY), Echinochloa crus-galli (ECHCG), Lolium perenne (LOLPE), and Setaria faberi (SETFA). After 8 days cultivation (post-emergence) under controlled conditions in a glasshouse (at 24/16° C., day/night; 14 hours light; 65% humidity), the plants were sprayed with an aqueous spray solution derived from the formulation of the technical active ingredient in acetone/water (50:50) solution containing 0.5% Tween 20 (polyoxyethelyene sorbitan monolaurate, CAS RN 9005-64-5). The test plants were then grown in a glasshouse under controlled conditions (at 24/16° C., day/night; 14 hours light; 65% humidity) and watered twice daily. After 13 days, the test was evaluated (5=total damage to plant; 0=no damage to plant).

[2] = system: Alopecurus myosuroides (ALOMY); assay: as above; settings: Rate 1000 g/ha; sprayed after 8 days cultivation; evaluated after 13 days
Method: as §1

[3] = system: Setaria faberi (SETFA); assay: as above; settings: Rate 1000 g/ha; sprayed after 8 days cultivation; evaluated after 13 days
Method: as §1

[4] = system: Echinochloa crus-galli (ECHCG); assay: as above; settings: Rate 1000 g/ha; sprayed after 8 days cultivation; evaluated after 13 days
Method: as §1

[5] = system: Lolium perenne (LOLPE); assay: as above; settings: Rate 1000 g/ha; sprayed after 8 days cultivation; evaluated after 13 days
Method: as §1

[6] = system: Avena fatua (AVEFA); assay: as above; settings: Rate 1000 g/ha; sprayed after 8 days cultivation; evaluated after 13 days
Method: as §1

[7] = system: Triticum aestivium (TRZAW); assay: Pre-emergence herbicidal activity, glasshouse pot test; settings: Rate 1000 g/ha; sprayed one day after sowing; evaluated after 13 days
Method: as §1, with “After” for “After 8 days”, “for one day (pre-emergence)” for “(post-emergence)”

[8] = system: Alopecurus myosuroides (ALOMY); assay: as above; settings: Rate 1000 g/ha; sprayed one day after sowing; evaluated after 13 days
Method: as §1, with “After” for “After 8 days”, “for one day (pre-emergence)” for “(post-emergence)”

[9] = system: Setaria faberi (SETFA); assay: as above; settings: Rate 1000 g/ha; sprayed one day after sowing; evaluated after 13 days
Method: as §1, with “After” for “After 8 days”, “for one day (pre-emergence)” for “(post-emergence)”

[10] = system: Echinochloa crus-galli (ECHCG); assay: as above; settings: Rate 1000 g/ha; sprayed one day after sowing; evaluated after 13 days
Method: as §1, with “After” for “After 8 days”, “for one day (pre-emergence)” for “(post-emergence)”

[11] = system: Lolium perenne (LOLPE); assay: as above; settings: Rate 1000 g/ha; sprayed one day after sowing; evaluated after 13 days
Method: as §1, with “After” for “After 8 days”, “for one day (pre-emergence)” for “(post-emergence)”

[12] = system: Avena fatua (AVEFA); assay: as above; settings: Rate 1000 g/ha; sprayed one day after sowing; evaluated after 13 days
Method: as §1, with “After” for “After 8 days”, “for one day (pre-emergence)” for “(post-emergence)”

| SMILES | Control of weed species after post-emergence application, TRAZW (damage score 0-5) [1] | Control of weed species after post-emergence application, ALOMY (damage score 0-5) [2] | Control of weed species after post-emergence application, SETFA (damage score 0-5) [3] | Control of weed species after post-emergence application, ECHCG (damage score 0-5) [4] | Control of weed species after post-emergence application, LOLPE (damage score 0-5) [5] | Control of weed species after post-emergence application, AVEFA (damage score 0-5) [6] | Control of weed species after pre-emergence application, TRAZW (damage score 0-5) [7] | Control of weed species after pre-emergence application, ALOMY (damage score 0-5) [8] | Control of weed species after pre-emergence application, SETFA (damage score 0-5) [9] | Control of weed species after pre-emergence application, ECHCG (damage score 0-5) [10] | Control of weed species after pre-emergence application, LOLPE (damage score 0-5) [11] | Control of weed species after pre-emergence application, AVEFA (damage score 0-5) [12] |
| --- | --- | --- | --- | --- | --- | --- | --- | --- | --- | --- | --- | --- |
| CC(C)(C)OC(=O)N(C(=O)OC(C)(C)C)c1ncc(-c2cncc(F)c2)nc1C(F)(F)F [Compound H5] | 1 | 0 | 5 | 5 | 2 | 3 | 0 | 0 | 5 | 5 | 1 | 2 |
| COC(=O)c1nc(-c2cncc(F)c2)cnc1N(C(=O)OC(C)(C)C)C(=O)OC(C)(C)C [Compound H26] | 1 | 0 | 5 | 3 | 0 | 1 | 0 | 0 | 5 | 0 | 0 | 0 |
| CC(C)(C)OC(=O)OCc1nc(-c2cncc(F)c2)cnc1N(C(=O)OC(C)(C)C)C(=O)OC(C)(C)C [Compound H18] | 0 | 0 | 3 | 4 | 1 | 1 | 0 | 0 | 4 | 3 | 1 | 0 |
| CC(C)(C)OC(=O)Nc1ncc(-c2cncnc2)nc1C(F)F [Compound H30] | 1 | 1 | 4 | 4 | 2 | 3 | 1 | 0 | 4 | 3 | 1 | 0 |
| CC(C)c1nc(-c2cncc(F)c2)cnc1N(C(=O)OC(C)(C)C)C(=O)OC(C)(C)C [Compound H13] | 1 | 0 | 5 | 2 | 1 | 1 | 0 | 0 | 4 | 1 | 0 | 0 |
| COc1nc(-c2cncc(F)c2)cnc1N(C(=O)OC(C)(C)C)C(=O)OC(C)(C)C [Compound H6] | 1 | 0 | 4 | 3 | 1 | 2 | 1 | 0 | 4 | 3 | 0 | 1 |
| Cc1nc(-c2cncc(F)c2)cnc1N(C(=O)OC(C)(C)C)C(=O)OC(C)(C)C [Compound H2, 2-bis(tert-butoxycarbonyl)amino-3-methyl-5-(5-fluoropyrid-3-yl)pyrazine] | 0 | 0 | 5 | 5 | 2 | 3 | 0 | 0 | 5 | 4 | 2 | 2 |
| CC(C)(C)OC(=O)Nc1ncc(-c2cncc(F)c2)nc1C(F)F [Compound H28] | 0 | 0 | 5 | 5 | 3 | 4 | 0 | 3 | 4 | 2 | 0 | 2 |
| CCc1nc(-c2cncc(F)c2)cnc1N(C(=O)OC(C)(C)C)C(=O)OC(C)(C)C [Compound H21] | 1 | 1 | 5 | 4 | 4 | 4 | 0 | 0 | 5 | 1 | 5 | 2 |
